The assay has as its target recombinant human Cathepsin S (Homo sapiens, UniProt P25774). Put plainly: Cathepsin S assay procedure: inhibition of enzyme activity, fluorescence of liberated aminomethylcoumarin. The format is biochemical. Particulars: activated recombinant human cathepsin S; substrate Z-Val-Val-Arg-AMC; sodium acetate pH5.5; fluorescence at 20 minutes; dose response curve; read-out: pIC50 (negative logarithm of the IC50 concentration) for inhibition of human cathepsin S (converted). As for the experimental part: 25µl of a 2mg/l solution of activated recombinant human cathepsin S, in assay buffer, is then added to the well, yielding a final inhibitor concentration of 10µM.
Enzyme activity is determined by measuring the fluorescence of the liberated aminomethylcoumarin at […] using 390nm excitation, at 20 minutes. Percentage enzyme activity is calculated by comparison of this activity to that of a solution containing no inhibitor.

Consider two molecules from patent EP1979351B1, “6-PHENYL-1H-IMIDAZO[4, 5-C]PYRIDINE-4-CARBONITRILE DERIVATIVES AS CATHEPSIN K AND S INHIBITORS” (N.V. Organon, priority 2006, dated 2007).

Chain of recombinant human Cathepsin S (P25774 115-331): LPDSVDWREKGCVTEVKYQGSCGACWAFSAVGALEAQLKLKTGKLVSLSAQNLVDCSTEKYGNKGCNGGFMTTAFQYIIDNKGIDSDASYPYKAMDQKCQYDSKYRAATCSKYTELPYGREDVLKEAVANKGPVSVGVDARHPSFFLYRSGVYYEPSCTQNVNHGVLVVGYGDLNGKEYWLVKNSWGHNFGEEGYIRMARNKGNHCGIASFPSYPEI

For the molecule `CCOc1ccc(-c2cc3c(ncn3CCCC(=O)O)c(C#N)n2)cc1C(F)(F)F` [Example 4, [4-Cyano-6-(4-ethoxy-3-trifluoromethyl-phenyl)-imidazo[4,5-c]pyridin-1-yl]-butyric acid], the IC50 is under 100 nM.

With `CCOc1ccc(-c2cc3[nH]c(CN4CCN(CCO)CC4)nc3c(C#N)n2)cc1C(F)(F)F` [Example 13l, 6-(4-Ethoxy-3-trifluoromethyl-phenyl)-2-[4-(2-hydroxy-ethyl)-piperazin-1-ylmethyl]-1H-imidazo[4,5-c]pyridine-4-carbonitrile], the IC50 is under 100 nM.
